Data on one compound can be found in patent EP4595964A1, “TREATMENT OF GM1 GANGLIOSIDOSIS” (Azafaros B.V., priority 2024, dated 2025).

Each structure is given as a SMILES string.

In data set [1] the test system is GLB1-null Ex 2-3 cerebral organoids. In words: Neuronal survival and health in the human brain organoid model of GM1 gangliosidosis. It is filed as cell-based. The following applies: 5 nM, 500 nM; concomitant with the GM1 reduction.
Data set [2] has the same test system. It is filed as cell-based, human.
The test system of data set [3] is control or GLB1-null cerebral organoids. In words: Cellularity test in cerebral organoids. It is filed as cell-based, human. The following applies: any timepoint, 5 nM, 500 nM.

For the compound `OC[C@H]1[C@@H](O)[C@H](O)[C@@H](O)CN1CCCCCOCc1ccc(-c2ccccc2)c(F)c1` [nizubaglustat], the “neuronal survival and health” value in data set [1] was “increased”. Also, in data set [2] (5 nM, 500 nM, weeks 18, 20 and 24, dose-dependent fashion, GLB1-null Ex 2-3 cerebral organoids), the GM1 accumulation entry is reported as “significantly reduced”. In data set [2] (Week 24, representative images (Figure 4 top panel), green stain), the “level of GLB1 in the EX 2-3 cell line” value is on record as “significantly reduces”. Also, the “reduced the level of GM1 ganglioside” value in data set [2] (after 24 weeks of regular (2-3 times per week) administration) is “at least 2 fold”. In data set [3], the cellularity result is given as “did not reduce”.
